Experimental data reported in article PMC4311985, “Molecular Surveillance of Antiviral Drug Resistance of Influenza A/H3N2 Virus in Singapore, 2009-2013” (PLoS ONE, 2015).

Tests used:
[1] = tested on: NA with combination of G248R and K249E mutations; conditions: 'low levels' of resistance; cited from earlier work
[2] = target: influenza A/H3N2 NA, wild-type (baseline) at loci 93, 155, 251 (Influenza A virus (H3N2), UniProt V9SU56); type: biochemical; conditions: wild-type (baseline) at each locus; 10 samples tested; mean; read-out: mean drug concentration required to inhibit 50% NA activity

| SMILES | IC50 increase [1] | IC50 [2] |
| --- | --- | --- |
| CCOC(=O)C1=C[C@@H](OC(CC)CC)[C@H](NC(C)=O)[C@@H](N)C1 [Oseltamivir, oseltamivir] | < 10 fold | – |
| CCC(CC)[C@H](NC(C)=O)[C@@H]1[C@H](O)[C@@H](C(=O)O)C[C@H]1N=C(N)N [Peramivir, peramivir] | – | 0.2 ± 0.1 nM |
| CC(=O)N[C@H]1[C@H]([C@H](O)[C@H](O)CO)OC(C(=O)O)=C[C@@H]1N=C(N)N [Zanamivir, zanamivir] | < 10 fold | – |
